Data published in publication PMC9848371, “Synthesis, kinetic studies and in-silico investigations of novel quinolinyl-iminothiazolines as alkaline phosphatase inhibitors” (Journal of Enzyme Inhibition and Medicinal Chemistry, 2023).
Entries after “also recorded” stand apart in the source; their conditions may differ.

Experiments:
[1] = target: T1, calf intestinal alkaline phosphatase (Bos taurus, UniProt P19111); experiment: Alkaline phosphatase inhibition assay (spectrophotometric, p-NPP substrate); format: biochemical; details: Mean ± SEM, pH 9.5, 37 °C
T1 sequence (P19111 20-533): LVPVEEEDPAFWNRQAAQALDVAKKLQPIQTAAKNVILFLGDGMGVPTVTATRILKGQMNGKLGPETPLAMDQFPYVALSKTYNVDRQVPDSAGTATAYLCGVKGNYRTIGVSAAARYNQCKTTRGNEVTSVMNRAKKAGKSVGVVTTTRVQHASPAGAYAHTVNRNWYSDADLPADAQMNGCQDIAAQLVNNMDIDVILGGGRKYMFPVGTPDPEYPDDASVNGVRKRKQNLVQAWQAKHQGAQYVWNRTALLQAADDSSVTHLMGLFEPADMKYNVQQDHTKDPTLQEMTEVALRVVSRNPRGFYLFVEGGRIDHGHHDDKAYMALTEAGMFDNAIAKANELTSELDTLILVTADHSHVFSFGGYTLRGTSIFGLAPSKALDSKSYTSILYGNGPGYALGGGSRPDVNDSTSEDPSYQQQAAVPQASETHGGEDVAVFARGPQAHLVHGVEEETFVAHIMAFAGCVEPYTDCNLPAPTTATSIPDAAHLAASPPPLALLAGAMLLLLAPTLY
Experimental: The inhibitory activity of calf intestinal alkaline phosphatase was evaluated using spectrophotometric assay as previously reported in our studies[55]^,[56]. In addition, Kinetic mechanism analysis was conducted to determine the mechanism of inhibition. […] The detailed procedure for alkaline phosphate inhibition assay and kinetic mechanism analysis is given in supplementary file. […]
Alkaline phosphatase inhibition assay and kinetic mechanism analysis
The reaction mixture comprised of 50 mM Tris -HCl buffer (5 mM MgCl2, 0.1 mM ZnCl2 pH 9.5), the compound (0.1 mM with final DMSO 1% (v/v) and mixture was pre -incubated for 10 min by adding 5 µL of CIALP (0.025 U/mL). Then, 10 µL of substrate (0.5 mM p-NPP (para nitrophenyl phosphate disodium salt) was added to initiate the reaction and the assay mixture was incubated again for 30 min at 37 °C. The change in absorbance of released p-nitrophenolate was monitored at 405 nm, using a 96-well microplate reader (SpectraMax ABS, USA). All the experiments were repeated three times in a triplicate manner.
The Alkaline Phosphatase activities were calculated according to the following formula: […]

[2] = target: T1, calf intestinal alkaline phosphatase; experiment: Kinetic mechanism analysis (Lineweaver-Burk plot); format: biochemical; details: for Km / Vmax: substrate para nitrophenyl phosphate disodium salt
Experimental: The inhibitory activity of calf intestinal alkaline phosphatase was evaluated using spectrophotometric assay as previously reported in our studies[55]^,[56]. In addition, Kinetic mechanism analysis was conducted to determine the mechanism of inhibition. […] The detailed procedure for alkaline phosphate inhibition assay and kinetic mechanism analysis is given in supplementary file.
According to the EI and ESI constants, respectively, it was determined if the compounds had the ability to inhibit the free enzyme and the enzyme-substrate complex. Figure 4 illustrates a succession of straight lines obtained from the Lineweaver–Burk plot of the enzyme’s kinetic studies against the substrate para nitrophenyl phosphate disodium salt at various inhibitor doses (A).
Where ODcontrol and ODsample represents the optical v densities in the absence and presence of […]
The inhibitor 6g concentrations were used 0.00, 0.169, 0.337 and 0.674 µM, Substrate p-NPP concentrations were 10, 5, 2.5, 1.25, 0.625 and 0.3125 mM. Pre-incubation time and other conditions were same as described in alkaline phosphatase inhibition assay section. Maximal initial velocities were determined from initial linear portion of absorbances up to 10 minutes after addition of enzyme at per minute’s interval. The inhibition type on the enzyme was assayed by Lineweaver-Burk plot of inverse of velocities (1/V) versus inverse of substrate concentration 1/[S] mM-1. The EI dissociation constant Ki was determined by secondary plot of 1/V versus inhibitor […]
Information Classification: General

| SMILES | IC50 [1] [nM] | melting point [°C] | other results |
| --- | --- | --- | --- |
| CCCC(=O)/N=c1/scc(-c2ccc(Br)cc2)n1-c1cnc2ccccc2c1 [Compound 6a] | 7250 ± 435 | – | – |
| CCCCC(=O)/N=c1/scc(-c2ccc(Br)cc2)n1-c1cnc2ccccc2c1 [Compound 6b] | 3150 ± 251 | – | – |
| CCCCCC(=O)/N=c1/scc(-c2ccc(Br)cc2)n1-c1cnc2ccccc2c1 [Compound 6c, (E)-N-(4-(4-Bromophenyl)-3-(quinolin-3-yl)thiazol-2(3H)-ylidene)hexanamide] | 4240 ± 241 | 181 to 182 | – |
| CCCCCCCCCC(=O)/N=c1/scc(-c2ccc(Br)cc2)n1-c1cnc2ccccc2c1 [Compound 6f] | 8680 ± 908 | – | – |
| Cc1ccc(C(=O)/N=c2/scc(-c3ccc(Br)cc3)n2-c2cnc3ccccc3c2)cc1 [Compound 6h] | 6300 ± 634 | 103 to 105 | – |
| O=C(/N=c1/scc(-c2ccc(Br)cc2)n1-c1cnc2ccccc2c1)c1ccc(Cl)cc1Cl [Compound 6i, N-dichlorobenzamide quinolinyl iminothiazoline] | 957 ± 71 | – | – |
| O=C(/N=c1/scc(-c2ccc(Br)cc2)n1-c1cnc2ccccc2c1)c1cc([N+](=O)[O-])cc([N+](=O)[O-])c1 [Compound 6j, N-nitrobenzamide quinolinyl iminothiazoline] | 509 ± 36 | – | – |

More lines, main results first:

| IC50 [1] [nM] | melting point [°C] | SMILES | other results |
| --- | --- | --- | --- |
| 886 ± 74 | 188 to 190 | CCCCCCC(=O)N=c1scc(-c2ccc(Br)cc2)n1-c1cnc2ccccc2c1 [Compound 6d] | – |
| 754 ± 55 | – | CCCCCCCC(=O)N=c1scc(-c2ccc(Br)cc2)n1-c1cnc2ccccc2c1 [Compound 6e] | – |
| 337 ± 15 | 217 to 220 | O=C(/N=c1/scc(-c2ccc(Br)cc2)n1-c1cnc2ccccc2c1)c1ccccc1 [Compound 6g, (E)-N-(4-(4-bromophenyl)-3-(quinolin-3-yl)thiazol-2(3H)-ylidene)benzamide] | Km ([2]; 6g concentration 0.169 µM): 310 µM; Vmax ([2]; 6g concentration 0.169 µM): 0.00204 ΔA /Min; Km ([2]; 6g concentration 0.337 µM): 310 µM; Vmax ([2]; 6g concentration 0.337 µM): 0.00175 ΔA /Min; Km ([2]; 6g concentration 0.674 µM): 310 µM; Vmax ([2]; 6g concentration 0.674 µM): 0.00133 ΔA /Min; Inhibition type ([2]; Lineweaver-Burk plot): non-competitively; also recorded: Non-Competitive; Ki ([2]; secondary plot of slope vs inhibitor concentration, read-out: Ki (EI dissociation constant)): 470 nM |
